Reference: US11407715B2, “Substituted indoline derivatives as dengue viral replication inhibitors” (JANSSEN PHARMACEUTICALS, INC., priority 2017, dated 2022)

Assays:
[1] = tested on: DENV-4 strain H241; experiment: Tetravalent RT-qPCR assay, serotype 4; type: cell-based, Dengue virus; conditions: RT-qPCR serotype 4 H241, Vero cells
Procedure: (§1) The antiviral activity of the compounds of the invention was tested against DENV-1 strain TC974#666 (NCPV), DENV-2 strain 16681, DENV-3 strain H87 (NCPV) and DENV-4 strain H241 (NCPV) in a RT-qPCR assay. Therefore, Vero cells were infected with either DENV-1, or -2, or -3, or -4 in the presence or absence of test compounds. At day 3 post-infection, the cells were lysed and cell lysates were used to prepare cDNA of both a viral target (the 3′UTR of DENV; Table 2) and a cellular reference gene (β-actin, Table 2). Subsequently, a duplex real time PCR was performed on a Lightcycler480 instrument. The generated Cp value is inversely proportional to the amount of RNA expression of these targets. Inhibition of DENV replication by a test compound results in a shift of Cp's for the 3′UTR gene. On the other hand, if a test compound is toxic to the cells, a similar effect on β-actin expression will be observed. The comparative ΔΔCp method is used to calculate ECs50, which is based on the relative gene expression of the target gene (3′UTR) normalized with the cellular housekeeping gene (β-actin). In addition, CC50 values are determined based on the Cp values acquired for the housekeeping gene β-actin.
(§2) The culture medium consisted of minimal essential medium supplemented with 2% of heat-inactivated fetal calf serum, 0.04% gentamycin (50 mg/mL) and 2 mM of L-glutamine. Vero cells, obtained from ECACC, were suspended in culture medium and 75 μL/well was added in 96-well plates (10000 cells/well), which already contain the antiviral compounds. […] In addition, each plate contains wells which are assigned as virus controls (containing cells and virus in the absence of compound) and cell controls (containing cells in the absence of virus and compound). Once the cells were added in the plates, the plates were incubated in a fully humidified incubator (37° C., 5% CO2) until the next day. Dengue viruses serotype-1, 2, 3 and 4 were diluted in order to obtain a Cp of ˜22-24 in the assay. Therefore, 25 μL of virus suspension was added to all the wells containing test compound and to the wells assigned as virus control. In parallel, 25 μL of culture medium was added to the cell controls. Next, the plates were incubated for 3 days in a fully humidified incubator (37° C., 5% CO2). After 3 days, the supernatant was removed from the wells and the cells were washed twice with ice-cold PBS (˜100 μL). The cell pellets within the 96-well plates were stored at −80° C. for at least 1 day. Next, RNA was extracted using the Cells-to-CT™ lysis kit, according to the manufacturer's guideline (Life Technologies). The cell lysates can be stored at −80C or immediately used in the reverse transcription step.
(§3) In preparation of the reverse transcription step, mix A (table 3A) was prepared and 7.57 μL/well was dispensed in a 96-well plate. After addition of 5 μL of the cell lysates, a five minute denaturation step at 75° C. was performed (table 3B). Afterwards, 7.43 μL of mix B was added (table 3C) and the reverse transcription step was initiated (table 3D) to generate cDNA.
(§4) Finally, a RT-qPCR mix was prepared, mix C (table 4A), and 22.02 μL/well was dispensed in 96-well LightCycler qPCR plates to which 3 μL of cDNA was added and the qPCR was performed according to the conditions in table 4B on a LightCycler 480.
(§5) Using the LightCycler software and an in-house LIMS system, dose response curves for each compound were calculated and the half maximal effective concentration (EC50) and the half maximal cytotoxic concentration (CC50) were determined (Tables 5-8).

[2] = tested on: Vero cells; conditions: African green monkey
[3] = tested on: DENV-1 strain TC974#666; experiment: Tetravalent RT-qPCR assay, serotype 1; type: cell-based, Dengue virus; conditions: RT-qPCR serotype 1 TC974#666, Vero cells
Procedure: as §1, §2, §3, §4, §5

[4] = tested on: DENV-3 strain H87; experiment: Tetravalent RT-qPCR assay, serotype 3; type: cell-based, Dengue virus; conditions: RT-qPCR serotype 3 H87, Vero cells
Procedure: as §1, §2, §3, §4, §5

[5] = tested on: DENV-2 16681 strain; experiment: microbe, parasite or virus in culture; type: cell-based, Dengue virus; conditions: for EC50: DENV-2 16681 eGFP, Vero cells, MOI 0.5, 3 days; for SI: SI=CC50/EC50, DENV-2 antiviral assay
[6] = tested on: DENV-2 strain 16681; experiment: Tetravalent RT-qPCR assay, serotype 2; type: cell-based, Dengue virus; conditions: RT-qPCR serotype 2 16681, Vero cells
Procedure: as §1, §2, §3, §4, §5

[7] = in vitro; conditions: African green monkey
[8] = Dengue virus, DENV2, Vero, 72 h

Row | SMILES | EC50 [5] [nM] | SI [5] | CC50 [7] [nM] | EC50 [5, 8] [nM] | other results
1 | COc1cc(NC(C(=O)N2CCc3ccc(OC(F)(F)F)cc32)c2ccc(Cl)cc2)cc(OCC2CC(C(=O)O)C2)c1 (stereo not drawn) [Compound 11B] | 0.11 | 118692 |  |  | EC50 [1]: 17 nM; CC50 [2]: 11000 nM; EC50 [3]: 0.2 nM; EC50 [4]: 1.8 nM; EC50 [6]: 0.1 nM
2 | COc1cc(NC(C(=O)N2CCc3cc(OC)c(C(F)(F)F)cc32)c2ccc(Cl)cc2)cc(OCC2CC(C(=O)O)C2)c1 (stereo not drawn) [Compound 24B] | 0.34 | 43100 |  |  | EC50 ([1]; Dengue virus, DENV4, Vero): 66 nM; CC50 [2]: 12000 nM; EC50 ([3]; Dengue virus, DENV1, Vero): 2.2 nM; EC50 [4]: 14 nM; EC50 ([6]; Dengue virus, DENV2, Vero): 0.26 nM
3 | COc1cc(NC(C(=O)N2CCc3ccc(OC(F)(F)F)cc32)c2ccc(Cl)cc2OC)cc(OCC2CC2C(=O)O)c1 (stereo not drawn) [Compound 19BB] | 0.038 | >148612 |  |  | EC50 [1]: 6.8 nM; CC50 [2]: 8800 nM; EC50 [3]: 0.091 nM; EC50 [4]: 0.85 nM; EC50 [6]: 0.078 nM
4 | COc1cc(NC2CC(C(=O)O)C2)cc(NC(C(=O)N2CCc3ccc(OC(F)(F)F)cc32)c2ccc(Cl)cc2)c1 (single isomer, unassigned) [Compound 33A] | 13 | 1110 | 17000 |  | 
5 | COc1cc(CCCCC(=O)O)cc(NC(C(=O)N2CCc3ccc(OC(F)(F)F)cc32)c2ccc(Cl)cc2)c1 (racemic) [Compound 14, 5-(3-((1-(4-chlorophenyl)-2-oxo-2-(6-(trifluoromethoxy)indolin-1-yl)ethyl)amino)-5-methoxyphenyl)pentanoic acid] |  | 50200 | 9600 | 0.23 | 
6 | COc1cc(CCCC(=O)O)cc(NC(C(=O)N2CCc3ccc(OC(F)(F)F)cc32)c2ccc(Cl)cc2)c1 (single isomer, unassigned) [Compound 15A] | 49 | 171 | 8400 |  | 
7 | COc1cc(NC(C(=O)N2CCc3ccc(OC(F)(F)F)cc32)c2ccc(Cl)cc2)cc(OCC23CC(C(=O)O)(C2)C3)c1 (racemic) [Compound 9, 3-((3-((1-(4-chlorophenyl)-2-oxo-2-(6-(trifluoro-methoxy)indolin-1-yl)ethyl)amino)-5-methoxyphenoxy)methyl)bicyclo[1.1.1]pentane-1-carboxylic acid] |  | 14700 | 9800 | 0.7 | 
8 | COc1cc(NC(C(=O)N2CCc3cc(OC)c(C(F)(F)F)cc32)c2ccc(Cl)cc2)cc(OCCC(C)C(=O)O)c1 (single isomer, unassigned) [Compound 20A] | 440 | 27 | 12000 |  | 
9 | COc1cc(NC(C(=O)N2CCc3ccc(OC(F)(F)F)cc32)c2ccc(Cl)cc2)cc(OCCCCC(=O)O)c1 (racemic) [Compound 13, 5-(3-((1-(4-chlorophenyl)-2-oxo-2-(6-(trifluoromethoxy)-indolin-1-yl)ethyl)amino)-5-methoxyphenoxy)pentanoic acid] |  | 38100 | 12000 | 0.25 | 
10 | COc1cc(NC(C(=O)N2CCc3ccc(OC(F)(F)F)cc32)c2ccc(Cl)cc2)cc(OCCC(=O)O)c1 (racemic) [Compound 12, 3-(3-((1-(4-chlorophenyl)-2-oxo-2-(6-(trifluoromethoxy)indolin-1-yl)ethyl)amino)-5-methoxyphenoxy)propanoic acid] |  | 9440 | 11000 | 1.1 | 
11 | COc1cc(NC(C(=O)N2CCc3cc(OC)c(Cl)cc32)c2ccc(Cl)cc2)cc(OC2CC(C(=O)O)C2)c1 (stereo not drawn) [Compound 32, (1s,3s)-3-(3-((2-(6-chloro-5-methoxyindolin-1-yl)-1-(4-chlorophenyl)-2-oxoethyl)amino)-5-methoxyphenoxy)cyclobutanecarboxylic Acid] | 0.13 | 130935 | 15000 |  | 
12 | COc1cc(NC(C(=O)N2CCc3ccc(OC(F)(F)F)cc32)c2ccc(Cl)cc2)cc(OCCCCC(=O)O)c1 (single isomer, unassigned) [Compound 13A] | 1.4 | 5720 | 9100 |  | 
13 | COc1cc(NC(C(=O)N2CCc3ccc(OC(F)(F)F)cc32)c2ccc(Cl)cc2)cc(OC23CC(C(=O)O)(C2)C3)c1 (single isomer, unassigned) [Compound 9A] | 90 | 125 | 11000 |  | 
14 | COc1cc(NC(C(=O)N2CCc3cc(OC)c(C(F)(F)F)cc32)c2ccc(Cl)cc2)cc(OCCC(C)(C)C(=O)O)c1 (single isomer, unassigned) [Compound 21A] | 16 | 687 | 11000 |  | 
15 | COc1cc(NC(C(=O)N2CCc3ccc(OC(F)(F)F)cc32)c2ccc(Cl)cc2OC)cc(OCCC(C)(C)C(=O)O)c1 (single isomer, unassigned) [Compound 18A] | 9.9 | 1160 | 12000 |  | 
16 | COc1cc(NC(C(=O)N2CCc3cc(OC)c(C(F)(F)F)cc32)c2ccc(Cl)cc2)cc(O[C@H]2C[C@@H](C(=O)O)C2)c1 (stereo partly drawn) [Compound 23, (1s,3s)-3-(3-((1-(4-chlorophenyl)-2-(5-methoxy-6-(trifluoromethyl)indolin-1-yl)-2-oxoethyl)amino)-5-methoxyphenoxy)cyclobutene-carboxylic Acid] |  | 116424 | 12000 | 0.093 | 
17 | COc1cc(NC(C(=O)N2CCc3ccc(OC(F)(F)F)cc32)c2ccc(Cl)cc2)cc(OCC2(CC(=O)O)CC2)c1 (racemic) [Compound 5, 2-(1-((3-((1-(4-chlorophenyl)-2-oxo-2-(6-(trifluoromethoxy)indolin-1-yl)ethyl)amino)-5-methoxyphenoxy)methyl)cyclopropyl)acetic acid] |  | 11300 | 9700 | 0.92 | 
18 | COc1cc(NC(C(=O)N2CCc3ccc(OC(F)(F)F)cc32)c2ccc(Cl)cc2)cc(OCC(C)CC(=O)O)c1 (racemic) [Compound 4, 4-(3-((1-(4-chlorophenyl)-2-oxo-2-(6-(trifluoromethoxy)indolin-1-yl)ethyl)amino)-5-methoxyphenoxy)-3-methylbutanoic acid] |  | 73900 | 10000 | 0.14 | 
19 | COc1cc(NC(C(=O)N2CCc3ccc(OC(F)(F)F)cc32)c2ccc(Cl)cc2OC)cc(OCCC(C)C(=O)O)c1 (single isomer, unassigned) [Compound 17A] | 76 | 147 | 11000 |  | 
20 | COc1cc(COCCC(=O)O)cc(NC(C(=O)N2CCc3ccc(OC(F)(F)F)cc32)c2ccc(Cl)cc2)c1 (racemic) [Compound 16, 3-((3-((1-(4-chlorophenyl)-2-oxo-2-(6-(trifluoromethoxy)indolin-1-yl)ethyl)amino)-5-methoxybenzyl)oxy)propanoic acid] |  | 56100 | 16000 | 0.33 | 
